Each compound was assayed against CDK2 (UniProt P24941) (assay: Enzyme Assay).

| IC50 | Structure (SMILES) |
| --- | --- |
| < 20 µM | CN1CC[C@H](c2c(O)cc(O)c3c(=O)cc(SCCO)oc23)[C@H](O)C1 |
| < 20 µM | CN1CC[C@H](c2c(O)cc(O)c3c(=O)cc(SCc4ccccc4)oc23)[C@H](O)C1 |
| < 20 µM | COC(=O)CCSc1cc(=O)c2c(O)cc(O)c([C@H]3CCN(C)C[C@H]3O)c2o1 |
| < 20 µM | CC(=O)NCCSc1cc(=O)c2c(O)cc(O)c(C3CCN(C)CC3O)c2o1 (configuration not stated) |
| < 20 µM | COc1ccc(CSc2cc(=O)c3c(O)cc(O)c([C@H]4CCN(C)C[C@H]4O)c3o2)cc1 |
| < 20 µM | CCSc1cc(=O)c2c(O)cc(OC)c([C@H]3CCN(C)C[C@H]3O)c2o1 |
| < 20 µM | CCCCSc1cc(=O)c2c(O)cc(O)c([C@H]3CCN(C)C[C@H]3O)c2o1 |
| < 20 µM | CC(=O)NCCSc1cc(=O)c2c(O)cc(O)c([C@H]3CCN(C)C[C@H]3O)c2o1 |
| < 20 µM | CCSc1cc(=O)c2c(O)cc(O)c([C@H]3CCN(C)C[C@H]3O)c2o1 |
| < 20 µM | CN1CCC(c2c(O)cc(O)c3c(=O)cc(SCCO)oc23)C(O)C1 (configuration not stated) |

Continued, compound first:

| Structure (SMILES) | IC50 |
| --- | --- |
| COc1ccc(CSc2cc(=O)c3c(O)cc(O)c(C4CCN(C)CC4O)c3o2)cc1 (configuration not stated) | < 20 µM |
| CN1CCC(c2c(O)cc(O)c3c(=O)cc(Sc4ccccc4Cl)oc23)C(O)C1 (configuration not stated) | < 20 µM |
| Cc1ccc(Sc2cc(=O)c3c(O)cc(O)c(C4CCN(C)CC4O)c3o2)cc1C (configuration not stated) | < 20 µM |
| CN1CCC(c2c(O)cc(O)c3c(=O)cc(SCc4ccc(C(C)(C)C)cc4)oc23)C(O)C1 (configuration not stated) | < 20 µM |
| CN1CCC(c2c(O)cc(O)c3c(=O)cc(Sc4ccc(OC(F)(F)F)cc4)oc23)C(O)C1 (configuration not stated) | < 20 µM |
| CN1CC[C@H](c2c(O)cc(O)c3c(=O)cc(Sc4ccccc4)oc23)[C@H](O)C1 | < 20 µM |
| CN1CC[C@H](c2c(O)cc(O)c3c(=O)cc(Sc4ccccc4Cl)oc23)[C@H](O)C1 | < 20 µM |
| CCc1ccc(Sc2cc(=O)c3c(O)cc(O)c(C4CCN(C)CC4O)c3o2)cc1 (configuration not stated) | < 20 µM |
| CN1CC[C@H](c2c(O)cc(O)c3c(=O)cc(Oc4ccccc4)oc23)[C@H](O)C1 | < 20 µM |
| CN1CCC(c2c(O)cc(O)c3c(=O)cc(Sc4ccc(C(C)(C)C)cc4)oc23)C(O)C1 (configuration not stated) | < 20 µM |
| COc1ccc(Sc2cc(=O)c3c(O)cc(O)c(C4CCN(C)CC4O)c3o2)cc1 (configuration not stated) | < 20 µM |
| COc1ccc(Sc2cc(=O)c3c(O)cc(O)c([C@H]4CCN(C)C[C@H]4O)c3o2)cc1 | < 20 µM |
